pEC50: −log10 of the molar value.

This experiment deals with S1P1/EDG1 (Homo sapiens, UniProt P21453). Kind of experiment: S1P1 CRE-bla CHOK1 reporter assay, inhibition of Forskolin induced cAMP. It is filed as cell-based. The settings on record: agonist activity range, S1P1 CRE-bla CHOK1, 2 μM Forskolin; read-out: S1P1 ACTIVITY
Chain of S1P1/EDG1 (P21453 whole entry): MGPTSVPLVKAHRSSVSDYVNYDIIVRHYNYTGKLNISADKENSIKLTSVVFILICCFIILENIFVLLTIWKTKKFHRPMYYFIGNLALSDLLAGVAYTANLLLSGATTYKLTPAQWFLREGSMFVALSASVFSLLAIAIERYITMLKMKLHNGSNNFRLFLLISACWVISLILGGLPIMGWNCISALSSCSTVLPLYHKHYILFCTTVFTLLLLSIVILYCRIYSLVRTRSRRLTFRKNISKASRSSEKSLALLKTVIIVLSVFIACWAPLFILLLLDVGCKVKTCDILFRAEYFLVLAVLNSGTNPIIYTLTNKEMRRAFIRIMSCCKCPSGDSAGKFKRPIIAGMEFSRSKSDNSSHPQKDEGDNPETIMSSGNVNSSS
As for the experimental part:
Generation of S1P1-Mediated Inhibition of cAMP Reporter Assay
A mammalian expression plasmid containing S1P1/EDG1 cloned into pcDNA3.1 was purchased from Missouri S&T cDNA Resource Centre. […] S1P1/pcDNA3.1 was transfected into the CRE-bla CHO K1 (Invitrogen) cell line, and stable single cell clones were selected using standard techniques.
S1P1 CRE-Bla CHOK1 Reporter Assay—Characterization of S1P1 Agonists
Cells were seeded into 384-well black wall/clear bottom plates at 10^4 cells/well/19.5 μl assay media (DMEM-phenol free, 0.5% charcoal/dextran stripped serum, 2 mM glutamine, 0.1 mM NEAA, 1 mM Na-Pyruvate, 25 mM Hepes) and incubated for 18 hrs at 37° C. in 5% CO2. Dose response curves (10-point) were generated in 10 mM Hepes, 0.1% Pluronic F127, in the presence of Forskolin. Cells were treated with 0.5 μl compound in the presence of 2 μM Forskolin for 4 hrs at 37° C. The FRET-based β-lactamase fluorescent substrate (LiveBLAzer™-FRET B/G Loading Kit CC4-AM; Invitrogen) was prepared according to manufacturer's directions, and incubated with cells for 2 hrs at room temperature. […] Data was analyzed by non-linear regression to determine the EC50 for inhibition of Forskolin induced cAMP.
For the molecule `CC(C)Oc1ccc(-c2nc(-c3cccc4c3CCC4NC[C@@H](O)CO)no2)cc1C#N` (mixture of isomers) [Compound 30], the pEC50 is 9.30 to 10.30.
Turning to `CC(C)Oc1ccc(-c2nc(-c3cccc4c3CCC4N3CC[C@@H](N)C3)no2)cc1C#N` (mixture of isomers) [Compound 31], the pEC50 was less than 8.30.
Regarding `CC(C)Oc1ccc(-c2nc(-c3cccc4c3CCC4N3CC[C@H](N)C3)no2)cc1C#N` (mixture of isomers) [Compound 32], the pEC50 is 8.30 to 9.30.
On to `CC(C)Oc1ccc(-c2nc(-c3cccc4c3CCC4N3CC[C@@H](O)C3)no2)cc1C#N` (mixture of isomers) [Compound 33], for which the pEC50 was 8.30 to 9.30.
As for `CC(C)Oc1ccc(-c2nc(-c3cccc4c3CCC4N3CC[C@H](O)C3)no2)cc1C#N` (mixture of isomers) [Compound 34], the figure is 8.30 to 9.30.
Regarding `CC(C)Oc1ccc(-c2nc(-c3cccc4c3CCC4NC[C@H](O)CO)no2)cc1C#N` (mixture of isomers) [Compound 41], the pEC50 is 9.30 to 10.30.
For `CC(C)Oc1ccc(-c2nc(-c3cccc4c3CCC4NC[C@@H](C)O)no2)cc1C#N` (mixture of isomers) [Compound 42], the pEC50 is 8.30 to 9.30.
The figure for `CC(C)Oc1ccc(-c2nc(-c3cccc4c3CCC4NC[C@H](C)O)no2)cc1C#N` (mixture of isomers) [Compound 43] is 9.30 to 10.30; for `CC(C)Oc1ccc(-c2nc(-c3cccc4c3CC[C@H]4NC(C)C(=O)N(C)C)no2)cc1C#N` (mixture of isomers) [Compound 58] it is 8.30 to 9.30.
On to `N#Cc1cc(-c2nc(-c3cccc4c3CCC4NCCO)no2)ccc1OC[C@@H](O)CO` (mixture of isomers) [Compound 104], for which the pEC50 is less than 8.30.
The figure for `CC(C)Oc1ccc(-c2nc(-c3cccc4c3CCC4NC(C)(C)CO)no2)cc1C#N` (racemic) [Compound 15] is 8.30 to 9.30; for `CC(C)Oc1ccc(-c2nc(-c3cccc4c3CCC4N3CCC(O)CC3)no2)cc1C#N` (racemic) [Compound 16, 5-(3-(1-(4-hydroxypiperidin-1-yl)-2,3-dihydro-1H-inden-4-yl)-1,2,4-oxadiazol-5-yl)-2-isopropoxybenzonitrile] it is 9.30 to 10.30.
Consider `CC(C)Oc1ccc(-c2nc(-c3cccc4c3CCC4NC(CO)CO)no2)cc1C#N` (racemic) [Compound 17, 5-(3-(1-((1,3-dihydroxypropan-2-yl)amino)-2,3-dihydro-1H-inden-4-yl)-1,2,4-oxadiazol-5-yl)-2-isopropoxybenzonitrile], for which the pEC50 was 9.30 to 10.30.
`CC(C)Oc1ccc(-c2nc(-c3cccc4c3CCC4N3CC(C(=O)O)C3)no2)cc1C#N` (racemic) [Compound 18, 1-(4-(5-(3-cyano-4-isopropoxyphenyl)-1,2,4-oxadiazol-3-yl)-2,3-dihydro-1H-inden-1-yl)azetidine-3-carboxylic acid]: the pEC50 was more than 10.30.
Consider `CC(C)Oc1ccc(-c2nc(-c3cccc4c3CCC4NC3CCNCC3)no2)cc1C#N` (racemic) [Compound 19, 2-isopropoxy-5-(3-(1-(piperidin-4-ylamino)-2,3-dihydro-1H-inden-4-yl)-1,2,4-oxadiazol-5-yl)benzonitrile], for which the pEC50 is less than 8.30.
Turning to `CC(C)Oc1ccc(-c2nc(-c3cccc4c3CCC4NCCN3CCCCC3)no2)cc1C#N` (racemic) [Compound 20], the pEC50 is less than 8.30.
Consider `CC(C)Oc1ccc(-c2nc(-c3cccc4c3CCC4NCCN3CCOCC3)no2)cc1C#N` (racemic) [Compound 21], for which the pEC50 is 8.30 to 9.30.
For `CC(C)Oc1ccc(-c2nc(-c3cccc4c3CCC4NC3CCCCC3)no2)cc1C#N` (racemic) [Compound 22], the pEC50 is less than 8.30.
With `CC(C)Oc1ccc(-c2nc(-c3cccc4c3CCC4NC3CCOCC3)no2)cc1C#N` (racemic) [Compound 23], the pEC50 was 8.30 to 9.30.
For the molecule `CC(C)Oc1ccc(-c2nc(-c3cccc4c3CCC4N3CCN(CCO)CC3)no2)cc1C#N` (racemic) [Compound 24], the pEC50 is 9.30 to 10.30.
As for `CC(C)Oc1ccc(-c2nc(-c3cccc4c3CCC4NCCN3CCNCC3)no2)cc1C#N` (racemic) [Compound 25], the figure is less than 8.30; as for `CC(C)Oc1ccc(-c2nc(-c3cccc4c3CCC4NCCN3CCCC3)no2)cc1C#N` (racemic) [Compound 26], 8.30 to 9.30.
Regarding `CNCCNC1CCc2c(-c3noc(-c4ccc(OC(C)C)c(C#N)c4)n3)cccc21` (racemic) [Compound 27], the pEC50 is 8.30 to 9.30.
On to `CCN(CC)CCNC1CCc2c(-c3noc(-c4ccc(OC(C)C)c(C#N)c4)n3)cccc21` (racemic) [Compound 28], for which the pEC50 was 8.30 to 9.30.
The figure for `CC(C)Oc1ccc(-c2nc(-c3cccc4c3CCC4NCCN)no2)cc1C#N` (racemic) [Compound 29] is 9.30 to 10.30.
With `COC(=O)CCNC1CCc2c(-c3noc(-c4ccc(OC(C)C)c(C#N)c4)n3)cccc21` (racemic) [Compound 35], the pEC50 is 9.30 to 10.30.
Turning to `COC(=O)C1CN(C2CCc3c(-c4noc(-c5ccc(OC(C)C)c(C#N)c5)n4)cccc32)C1` (racemic) [Compound 36], the pEC50 is 9.30 to 10.30.
Turning to `CC(=O)OCCNC1CCc2c(-c3noc(-c4ccc(OC(C)C)c(C#N)c4)n3)cccc21` (racemic) [Compound 37], the pEC50 was 9.30 to 10.30.
As for `COCC(=O)NC1CCc2c(-c3noc(-c4ccc(OC(C)C)c(C#N)c4)n3)cccc21` (racemic) [Compound 39], the figure is 9.30 to 10.30.
Take `CCOC(=O)CNC1CCc2c(-c3noc(-c4ccc(OC(C)C)c(C#N)c4)n3)cccc21` (racemic) [Compound 40]: the pEC50 was 9.30 to 10.30.
For the molecule `CC(C)Oc1ccc(-c2nc(-c3cccc4c3CCC4NCCS(C)(=O)=O)no2)cc1C#N` (racemic) [Compound 44], the pEC50 is 9.30 to 10.30.
As for `CNS(=O)(=O)CCNC1CCc2c(-c3noc(-c4ccc(OC(C)C)c(C#N)c4)n3)cccc21` (racemic) [Compound 45, 2-((4-(5-(3-cyano-4-isopropoxyphenyl)-1,2,4-oxadiazol-3-yl)-2,3-dihydro-1H-inden-1-yl)amino)-N-methylethanesulfonamide], the pEC50 was 9.30 to 10.30.
Take `CC(C)Oc1ccc(-c2nc(-c3cccc4c3CCC4N3CCOCC3)no2)cc1C#N` (racemic) [Compound 46]: the pEC50 was 8.30 to 9.30.
The figure for `CC(C)Oc1ccc(-c2nc(-c3cccc4c3CCC4N3CCNCC3)no2)cc1C#N` (racemic) [Compound 47] is 9.30 to 10.30; for `CC(C)Oc1ccc(-c2nc(-c3cccc4c3CCC4N3CCCCC3)no2)cc1C#N` (racemic) [Compound 48] it is less than 8.30; for `N#Cc1cc(-c2nc(-c3cccc4c3CCC4NCCO)no2)ccc1O` (racemic) [Compound 102, 2-hydroxy-5-(3-(1-((2-hydroxyethyl)amino)-2,3-dihydro-1H-inden-4-yl)-1,2,4-oxadiazol-5-yl)benzonitrile] it is less than 8.30.
`CC(C)COc1ccc(-c2nc(-c3cccc4c3CCC4NCCO)no2)cc1C#N` (racemic) [Compound 103, 5-(3-(1-((2-hydroxyethyl)amino)-2,3-dihydro-1H-inden-4-yl)-1,2,4-oxadiazol-5-yl)-2-isobutoxybenzonitrile]: the pEC50 is 8.30 to 9.30.
On to `COCCOc1ccc(-c2nc(-c3cccc4c3CCC4NCCO)no2)cc1C#N` (racemic) [Compound 106], for which the pEC50 was less than 8.30.
As for `CC(C)C(=O)Oc1ccc(-c2nc(-c3cccc4c3CCC4NCCO)no2)cc1C#N` (racemic) [Compound 108], the figure is less than 8.30; as for `N#Cc1cc(-c2nc(-c3cccc4c3CCC4NCCO)no2)ccc1OCC(=O)O` (racemic) [Compound 109], less than 8.30.
For the molecule `COC(=O)CCCCNC1CCc2c(-c3noc(-c4ccc(OC(C)C)c(C#N)c4)n3)cccc21` (racemic) [Compound 147], the pEC50 was more than 10.30.
As for `CC(C)Oc1ccc(-c2nc(-c3cccc4c3CCC4NS(C)(=O)=O)no2)cc1C#N` (stereo in doubt) [Compound 70], the figure is 9.30 to 10.30.
As for `CNCCS(=O)(=O)NC1CCc2c(-c3noc(-c4ccc(OC(C)C)c(C#N)c4)n3)cccc21` (stereo in doubt) [Compound 75], the pEC50 was 8.30 to 9.30.
With `CC(C)Oc1ccc(-c2nc(-c3cccc4c3CCC4NS(=O)(=O)CCN(C)C)no2)cc1C#N` (stereo in doubt) [Compound 77], the pEC50 was 9.30 to 10.30.
Take `CC(C)Oc1ccc(-c2nc(-c3cccc4c3CCC4NS(=O)(=O)c3ccccc3)no2)cc1C#N` (stereo in doubt) [Compound 79]: the pEC50 is 8.30 to 9.30.
For `CC(C)Oc1ccc(-c2nc(-c3cccc4c3CCC4NS(=O)(=O)c3ccc(C(=O)O)cc3)no2)cc1C#N` (stereo in doubt) [Compound 80], the pEC50 was less than 8.30.
The figure for `CC(=O)Nc1ccc(S(=O)(=O)NC2CCc3c(-c4noc(-c5ccc(OC(C)C)c(C#N)c5)n4)cccc32)cc1` (stereo in doubt) [Compound 82] is less than 8.30; for `COCCNC1CCc2c(-c3noc(-c4ccc(OC(C)C)c(C#N)c4)n3)cccc21` (stereo in doubt) [Compound 88] it is 8.30 to 9.30; for `CC(C)Oc1cc(C#N)cc(-c2nc(-c3cccc4c3CCC4N)no2)c1` (stereo in doubt) [Compound 97, (R)-3-(3-(1-amino-2,3-dihydro-1H-inden-4-yl)-1,2,4-oxadiazol-5-yl)-5-isopropoxy benzo-nitrile] it is less than 8.30.

Values taken from patent publication US9388147B2 (Receptos, Inc., priority 2009, dated 2016).
